Among the test systems are 786-0 renal; HL-60(TB) leukemia; HOP-92 NSCLC; KM12 colon; LOX IMVI melanoma; MCF7 breast; MOLT-4 leukemia; NCI-H522 lung; SF-295 CNS; SNB-75 CNS.
Holding throughout (experiment): NCI-60 cell line screen, 48 h

Each structure is given as a SMILES string.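 Each compound was tested at five concentrations against cells in 96-well plates for 48 hours. GI50 marks 50% less growth. The concentration for full growth arrest is given as TGI.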

Turning to `CN1C(=O)N(C)C2C1NN=c1s/c(=C\c3ccc(C(F)(F)F)cc3)c(=O)n12` (centres undefined), the GI50 is 3.82 µM in the assay with 786-0 renal; 0.413 µM in the assay on HL-60(TB) leukemia; 0.433 µM with HOP-92 NSCLC; 0.705 µM in the assay on KM12 colon; 0.854 µM with LOX IMVI melanoma; 0.392 µM with MCF7 breast. For the same compound, the GI50 is 2.55 µM in the assay with MOLT-4 leukemia, 0.355 µM in the assay on NCI-H522 lung, 0.581 µM with SF-295 CNS and 2.11 µM with SNB-75 CNS. Also, the TGI in the assay with 786-0 renal is above 100 µM; in the assay with HL-60(TB) leukemia, 18.6 µM; in the assay with HOP-92 NSCLC it was 57.9 µM; in the assay on KM12 colon, above 100 µM; with LOX IMVI melanoma it was above 100 µM; in the assay on MCF7 breast it was above 100 µM. The TGI with MOLT-4 leukemia was above 100 µM; with NCI-H522 lung, 2.25 µM; in the assay on SF-295 CNS, 14.6 µM; in the assay on SNB-75 CNS, 18.1 µM.
For `COC1C=COC2(C)Oc3c(C)c(O)c4c(c3C2=O)/C(=N/C2CCC(O)OC2C)C=C(NC(=O)/C(C)=C\C(=O)C2CC2C(O)C(C)C(O)C(C)C(OC(C)=O)C1C)C4=O` (centres undefined), the TGI turned out to be 3.13 µM with 786-0 renal; 6.32 µM with HL-60(TB) leukemia; 5.29 µM with HOP-92 NSCLC; 9.48 µM in the assay on KM12 colon; 3.24 µM in the assay on LOX IMVI melanoma; 4.74 µM in the assay on MCF7 breast. The TGI was found to be 8.05 µM with MOLT-4 leukemia, 2.79 µM in the assay on NCI-H522 lung, 13.3 µM in the assay with SF-295 CNS and 12.4 µM with SNB-75 CNS.
With `O=C(OCc1ccc2ccccc2n1)c1cn(C2CC2)c2cc(N3CCN(Cc4ccc5ccccc5n4)CC3)c(F)cc2c1=O`, the GI50 is above 49.2 µM in the assay on 786-0 renal; above 100 µM in the assay with HL-60(TB) leukemia; above 100 µM with HOP-92 NSCLC; 41.6 µM with KM12 colon; 29 µM with LOX IMVI melanoma; 35 µM in the assay on MCF7 breast. The GI50 was above 100 µM in the assay with MOLT-4 leukemia, above 94.3 µM in the assay with NCI-H522 lung, 35.2 µM in the assay with SF-295 CNS and 32 µM in the assay on SNB-75 CNS. The TGI with 786-0 renal is above 68.4 µM; in the assay with HL-60(TB) leukemia it was above 100 µM; with HOP-92 NSCLC it was above 100 µM; in the assay on KM12 colon it was above 100 µM; in the assay with LOX IMVI melanoma, above 89.5 µM; in the assay on MCF7 breast, above 92.7 µM. For the same compound, the TGI with MOLT-4 leukemia is above 100 µM; in the assay on NCI-H522 lung, above 100 µM; in the assay with SF-295 CNS, above 100 µM; in the assay on SNB-75 CNS, above 66.6 µM.
On to `CN1CCN(C(=O)c2cc(-c3ccc4ncnc(N5CCc6cc(F)c(Cl)cc65)c4c3)cnc2N)CC1`, for which the GI50 in the assay with 786-0 renal is 0.22 µM; in the assay with HL-60(TB) leukemia it was 0.0535 µM; with HOP-92 NSCLC, 0.154 µM; with KM12 colon, 0.312 µM; in the assay with LOX IMVI melanoma, 0.192 µM; in the assay with MCF7 breast, 0.0992 µM. For the same compound, the GI50 with MOLT-4 leukemia was 0.127 µM; in the assay with NCI-H522 lung, 0.346 µM; with SF-295 CNS it was 0.288 µM; in the assay with SNB-75 CNS it was 0.0512 µM. Besides, the TGI amounted to 1.73 µM in the assay with 786-0 renal; 0.409 µM in the assay on HL-60(TB) leukemia; 1.08 µM in the assay with HOP-92 NSCLC; 1.83 µM in the assay with KM12 colon; 1.44 µM in the assay with LOX IMVI melanoma; 1.89 µM in the assay with MCF7 breast. The TGI in the assay with MOLT-4 leukemia is 0.664 µM; in the assay on NCI-H522 lung it was 3.22 µM; with SF-295 CNS, 1.84 µM; in the assay on SNB-75 CNS it was 0.704 µM.
Consider `O=C(O)c1ccc(C(=O)c2ccccc2)c(C(=O)O)c1`, for which the TGI with 786-0 renal, in the assay with HL-60(TB) leukemia, in the assay on HOP-92 NSCLC, with KM12 colon, in the assay with LOX IMVI melanoma and with MCF7 breast was above 100 µM each time. Further, the TGI in the assay with MOLT-4 leukemia, in the assay with NCI-H522 lung, with SF-295 CNS and in the assay on SNB-75 CNS was above 100 µM throughout.
On to `CCOc1ccccc1C(=O)N1CCN(c2cc(Cl)cc(Cl)c2)CC1`, for which the GI50 in the assay on 786-0 renal was 0.0624 µM; with HL-60(TB) leukemia, 0.0254 µM; in the assay with HOP-92 NSCLC, 0.182 µM; in the assay with KM12 colon it was 0.0361 µM; in the assay with LOX IMVI melanoma, 0.031 µM; in the assay with MCF7 breast, 0.0321 µM. The GI50 with MOLT-4 leukemia was 0.0424 µM; in the assay with NCI-H522 lung, 0.0142 µM; in the assay on SF-295 CNS, 0.0252 µM; in the assay on SNB-75 CNS, 0.474 µM. For the same compound, the TGI in the assay on 786-0 renal is 14.8 µM; in the assay on HL-60(TB) leukemia, 0.078 µM; in the assay with HOP-92 NSCLC, 12.9 µM; in the assay on KM12 colon, 13.6 µM; in the assay on LOX IMVI melanoma, 13.1 µM; in the assay with MCF7 breast it was 12.2 µM. The TGI was 21 µM in the assay on MOLT-4 leukemia, 0.358 µM in the assay with NCI-H522 lung, 0.779 µM in the assay on SF-295 CNS and 14.3 µM with SNB-75 CNS.
Consider `C[C@@H]1CN(Cc2ccc(F)cc2)[C@@H](C)CN1C(=O)c1cc2c(C(=O)C(=O)N(C)C)cn(C)c2cc1Cl`, for which the GI50 with 786-0 renal was 21.2 µM; in the assay on HL-60(TB) leukemia it was 23.5 µM; in the assay on HOP-92 NSCLC, 19.4 µM; in the assay with KM12 colon, 17.3 µM; in the assay on LOX IMVI melanoma, 14.2 µM; in the assay with MCF7 breast it was 15.2 µM. Besides, the GI50 was 17.9 µM in the assay on MOLT-4 leukemia, 15.8 µM in the assay on NCI-H522 lung, 14.9 µM in the assay on SF-295 CNS and 8.35 µM with SNB-75 CNS. Besides, the TGI is 67.1 µM with 786-0 renal; 63.2 µM with HL-60(TB) leukemia; 56.5 µM in the assay with HOP-92 NSCLC; 37.4 µM with KM12 colon; 28.4 µM in the assay with LOX IMVI melanoma; 37.3 µM in the assay with MCF7 breast. Besides, the TGI in the assay on MOLT-4 leukemia amounted to 45.5 µM; in the assay on NCI-H522 lung, 43.4 µM; in the assay with SF-295 CNS it was 36.7 µM; in the assay on SNB-75 CNS, 27.9 µM.
Regarding `COc1cc(N2C(=O)[C@H](O)C2c2ccc(SC)cc2)cc(OC)c1OC` (some centres undefined), the GI50 with 786-0 renal was below 0.01 µM; with HL-60(TB) leukemia, 0.0106 µM; in the assay with HOP-92 NSCLC, 71.4 µM; in the assay on KM12 colon it was below 0.01 µM; in the assay on LOX IMVI melanoma, below 0.01 µM; in the assay on MCF7 breast, below 0.01 µM. The GI50 was 0.0334 µM in the assay on MOLT-4 leukemia, below 0.01 µM in the assay with NCI-H522 lung, below 0.01 µM with SF-295 CNS and below 0.01 µM with SNB-75 CNS. The TGI in the assay on 786-0 renal is 55.8 µM; with HL-60(TB) leukemia, 0.0448 µM; with HOP-92 NSCLC, above 100 µM; with KM12 colon it was above 100 µM; in the assay with LOX IMVI melanoma it was above 100 µM; in the assay on MCF7 breast, above 100 µM. For the same compound, the figures for the TGI in the assay on MOLT-4 leukemia, with SF-295 CNS and in the assay with SNB-75 CNS were 53.4 µM, 26.1 µM and above 100 µM, respectively.

Source of the values: PubChem BioAssay (NCI).
